The text below walks through data of PubChem BioAssay (NCI).

Molecules are shown by their SMILES.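 Tested at 5 concentrations; 48 h exposure; 96-well plates; endpoints linearly interpolated, else capped at highest concentration. The concentration for full growth arrest is given as TGI.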

Holding throughout (experiment): NCI tumour cell line growth inhibition, 48 h
The test system of assay [1] is A549 NSCLC.
In assay [2] the test system is CAKI-1 renal.
Assay [3] concerns MCF7 breast.
Assay [4] concerns PC-3 prostate.
For assay [5], the system named is RPMI-8226 leukemia.
For assay [6], the system named is RXF 393 renal.
In assay [7] the test system is SK-MEL-28 melanoma.
The test system of assay [8] is SNB-19 CNS.
The subject of assay [9] is SW-620 colon.
Assay [10] deals with TK-10 renal.
Assay [11] relates to UACC-257 melanoma.
In assay [12] the test system is UACC-62 melanoma.

Take `O=C1CCC(=O)N1CNc1ccc2c(c1)Sc1ccccc1O2`: the TGI in [1] was > 100 µM; in assay [2], > 100 µM; in [3], > 100 µM; in assay [4], > 100 µM; in [5] it was > 100 µM; in [6], 79.9 µM. In addition, the TGI in assay [7], in assay [8], in assay [9], in assay [10], in [11] and in assay [12] was > 100 µM in each case.
`CCCCCCNC(=O)c1cc(NCc2cc(OC)ccc2OC)ccc1O`: the TGI in assay [1] is > 100 µM; in assay [2], 98 µM; in assay [3], 53.5 µM; in assay [4], 45.7 µM; in assay [5] it was 35.6 µM; in assay [6] it was 56.5 µM. Also, the TGI in [7] is > 100 µM; in [8] it was > 100 µM; in [9], > 100 µM; in [10] it was > 100 µM; in assay [11] it was 45.7 µM; in [12], 33 µM.
On to `O=C(O)c1ccc(Nc2ccnc3cc(Cl)ccc23)cc1O`, for which the TGI in assay [1], in assay [2], in assay [3], in assay [4], in assay [5] and in assay [6] was > 100 µM in each case. The TGI in assay [7], in assay [8], in [9], in assay [10], in assay [11] and in assay [12] was > 100 µM in each case.
Regarding `Cc1cc(S(=O)(=O)Nc2nc(N)n(-c3cnc4ccccc4n3)n2)c(S)cc1Cl`, the TGI in assay [1], in [2], in assay [3], in assay [4], in [6] and in assay [7] was > 100 µM each time. The TGI in assay [8], in assay [9], in assay [10], in assay [11] and in assay [12] was > 100 µM each time.
In the case of `Cc1ccc(S(=O)(=O)Nn2c(-c3ccccc3)c(C#N)c(-c3ccc(Cl)cc3)c(C#N)c2=O)cc1`, the TGI in [1] was > 100 µM; in assay [2] it was > 100 µM; in [3] it was > 100 µM; in assay [4], 98 µM; in assay [5] it was 37.4 µM; in [6] it was > 100 µM. For the same molecule, the TGI in assay [7] is 78.5 µM; in assay [8], > 100 µM; in assay [9] it was > 100 µM; in assay [10], > 100 µM; in [11], > 100 µM; in assay [12] it was 33 µM.
Turning to `CC1=C(C)SC(=C2Sc3c(n(C)c(=O)[nH]c3=O)S2)S1`, the TGI in assay [1], in assay [2], in assay [3], in assay [4], in assay [5] and in [6] was > 100 µM in each case. Besides, the TGI in assay [7], in assay [8], in assay [9], in assay [10], in assay [11] and in assay [12] was > 100 µM each time.
In the case of `CCCCCCCCCCCCCCCCOP(=O)(O)OP(=O)(O)OCC1OC(n2ccc(N)nc2=O)CC1O` (stereo unspecified), the TGI in assay [1], in assay [2], in assay [3], in assay [4], in [5] and in [6] was > 100 µM each time. The TGI in [7], in [8], in [9], in [10], in assay [11] and in assay [12] was > 100 µM in each case.
Consider `Cc1[nH]c2c(C)ccc(C)c2c1CC(=O)O`, for which the TGI was > 100 µM in [1]; > 100 µM in assay [2]; > 100 µM in assay [3]; 69.9 µM in [4]; 66.8 µM in assay [5]; > 100 µM in assay [6]. In addition, the TGI in [7], in assay [8], in [9], in assay [10], in [11] and in [12] was > 100 µM each time.
On to `COC(=O)c1ccccc1C1CN=NC12Cc1c(C)cc(C)cc1C2=O` (stereo unspecified), for which the TGI in assay [1], in assay [2], in [3], in [4], in assay [6] and in assay [7] was > 100 µM in each case. The TGI in assay [8], in assay [9], in assay [10], in [11] and in [12] was > 100 µM in each case.
